Measurements from the CheMixHub viscosity set.

Experiment: xn = mol fraction of the nth substance listed
Details: 101 kPa

CCCCCCCO + CCO
viscosity [mPa·s]
Details | 298.15 K | 308.15 K | 318.15 K
x2 = 0.05 | 5.456 | 4.038 | 3.025
x2 = 0.1 | 5.144 | 3.82 | 2.89
x2 = 0.15 | 4.838 | 3.607 | 2.75
x2 = 0.2 | 4.539 | 3.4 | 2.607
x2 = 0.25 | 4.249 | 3.199 | 2.465
x2 = 0.3 | 3.969 | 3.005 | 2.325
x2 = 0.35 | 3.699 | 2.817 | 2.188
x2 = 0.4 | 3.439 | 2.636 | 2.055
x2 = 0.45 | 3.191 | 2.462 | 1.927
x2 = 0.5 | 2.954 | 2.294 | 1.805
x2 = 0.55 | 2.727 | 2.132 | 1.688
x2 = 0.6 | 2.512 | 1.977 | 1.577
x2 = 0.65 | 2.306 | 1.827 | 1.471
x2 = 0.7 | 2.111 | 1.682 | 1.369
x2 = 0.75 | 1.924 | 1.543 | 1.271
x2 = 0.8 | 1.744 | 1.408 | 1.174
x2 = 0.85 | 1.571 | 1.276 | 1.078
x2 = 0.9 | 1.403 | 1.147 | 0.9796
x2 = 0.95 | 1.237 | 1.021 | 0.8769
